Measurements as given in US12138398B2, “Methods and devices for providing a stimulus to a subject to induce gamma oscillations” (Massachusetts Institute of Technology, priority 2015, dated 2024).

Columns and labels:
CK-p25 Tg mice [1] = assay: γH2AX-positive cells (DNA damage) in CK-p25 Tg mice; assay type: in vivo, mouse
Method: A study was conducted to examine the effect of gamma exposure and/or administration in accordance with some embodiments on DNA damage and neuronal loss in the visual cortex of a subject. For the study, an inducible mouse model of p25 accumulation (i.e., a creatine kinase carboxyl-terminal fragment p25 Tg mouse (CK-p25 Tg mouse)) was used. […] A study was conducted to compare groups of mice under different treatment regimens. FIG. 84 is a diagram of the groups including CK-control mice 8400, untreated CK-p25 Tg mice 8402, CK-p25 Tg mice treated with memantine (10 mg/kg daily) 8404, CK-p25 Tg mice exposed to the 40-Hz light flicker (one hour daily for 6 weeks) in accordance with some embodiments 8406, and CK-p25 Tg mice treated with memantine and also exposed to the 40-Hz light flicker 8408. Memantine is a medication used with limited success to treat severe AD by blocking NMDA receptors, thereby acting on the glutamatergic system. DNA double strand breaks (DSB) are one example of DNA damage in eukaryotic cells, causing genomic instability, leading to tumorigenesis and possibly accelerated aging. Phosphorylated histone H2AX (γH2AX) was used as a biomarker of cellular response to DSB. FIG. 99 is bar graph comparing the amount of γH2AX-positive cells in CK-control mice, untreated CK-p25 Tg mice, CK-p25 Tg mice treated with memantine, CK-p25 Tg mice exposed to the 40-Hz light flicker in accordance with some embodiments, and CK-p25 Tg mice treated with both memantine and the 40-Hz light flicker. Cells positive for γH2AX were almost non-existent in CK-control mice, but very high in untreated CK-p25 Tg mice, indicating high amounts of DSB and other DNA damage. Treatment with memantine reduced the amount of γH2AX-positive cells in CK-p25 Tg mice compared to the untreated group. […] Thus, FIG. 99 illustrates how 40-Hz visual flicker treatment in accordance with some embodiments can reduce DNA damage in the visual cortex.

CK-p25 Tg mice [2] = assay: Cortical (Hoechst) and neuronal (NeuN) layer thickness in CK-p25 Tg mice; assay type: in vivo, mouse; details: for thickness of neuronal layer of the insular cortex / thickness of SS1-neuronal layer: NeuN; for thickness of SS1-neuronal layer / thickness of SS1-cortical layer: somatosensory cortex
[3] = memantine + 40-Hz light flicker
[4] = memantine alone, compared to untreated CK-p25 Tg

`CC12CC3CC(C)(C1)CC(N)(C3)C2` [memantine] was tested, and the “number of γH2AX-positive cells in hippocampus” value (CK-p25 Tg mice [1]; [3]) was “significantly increased”, the “number of γH2AX-positive cells in insular cortex” value (CK-p25 Tg mice [1]; [3]) was “significantly increased” and the “number of γH2AX-positive cells in somatosensory cortex” value (CK-p25 Tg mice [1]; [3]) was “significantly increased”. For the same compound, the “number of γH2AX-positive cells in visual cortex” value (CK-p25 Tg mice [1]; [3]) was “significantly increased”, the “amount of γH2AX-positive cells in hippocampus” value (CK-p25 Tg mice [1]; [4]) was “reduced” and the “amount of γH2AX-positive cells in insular cortex” value (CK-p25 Tg mice [1]; [4]) was “reduced”. The “amount of γH2AX-positive cells in somatosensory cortex” value (CK-p25 Tg mice [1]; [4]) was “reduced”, the “amount of γH2AX-positive cells in visual cortex” value (CK-p25 Tg mice [1]; [4]) was “reduced” and the thickness of neuronal layer of the insular cortex (CK-p25 Tg mice [2]; [3]) was 848 ± 15 µm. It also gave a thickness of neuronal layer of the insular cortex (CK-p25 Tg mice [2]; memantine alone) of 850 ± 18 µm, a thickness of cortical layer of the insular cortex (CK-p25 Tg mice [2]; [3]) of 965 ± 16 µm and a thickness of cortical layer of the insular cortex (CK-p25 Tg mice [2]; memantine alone) of 983 ± 12 µm. It also gave a thickness of SS1-neuronal layer (CK-p25 Tg mice [2]; [3]) of 650 ± 11 µm, a thickness of SS1-neuronal layer (CK-p25 Tg mice [2]; memantine alone) of 629 ± 9 µm and a thickness of SS1-cortical layer (CK-p25 Tg mice [2]; [3]) of 778 ± 13 µm. The thickness of SS1-cortical layer (CK-p25 Tg mice [2]; memantine alone) was 756 ± 11 µm.
